# From publication PMC10648852, “Molecular drivers of resistance to sulbactam-durlobactam in contemporary clinical isolates of Acinetobacter baumannii” (Antimicrobial Agents and Chemotherapy, 2023)
# Like-named read-outs stand apart in the source and are kept apart here.
# Key:
# [1] = system: ABC clinical isolates with SUL-DUR MIC > 4 µg/mL; assay: microbe, parasite or virus in culture; assay type: cell-based, Acinetobacter baumannii-calcoaceticus complex
# How it was run: (§1)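 Broth microdilution MICs following CLSI methods, interpreted with CLSI breakpoints where available. Sulbactam tested as twofold dilutions combined with fixed 4 µg/mL durlobactam.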
# [2] = system: A. baumannii clinical isolates; assay: microbe, parasite or virus in culture; assay type: cell-based; conditions: Acinetobacter baumannii
# How it was run: as §1
# [3] = system: A. nosocomialis clinical isolate; assay: microbe, parasite or virus in culture; assay type: cell-based; conditions: Acinetobacter nosocomialis, isolate ARC7023 (IHMA 2118812), France, BSI, 2019, read-out: MIC
# How it was run: as §1
# [4] = system: A. pittii clinical isolates; assay: microbe, parasite or virus in culture; assay type: cell-based; conditions: Acinetobacter pittii
# How it was run: as §1
# [5] = system: A. baumannii PBP3 S390T; set-up: method as in McLeod et al. (2018); conditions: average ± SD, ref McLeod et al. (2018); cited from earlier work
# [6] = system: A. baumannii PBP3 S395F; set-up: method as in McLeod et al. (2018); conditions: average ± SD, ref McLeod et al. (2018); cited from earlier work
# [7] = system: A. baumannii wild-type PBP3; assay: Acylation rate constant (kinact/Ki), fluorescence anisotropy competition with BOCILLIN; conditions: Wildtype PBP3
# [8] = system: A. baumannii PBP3 H370Y; assay: as above
# [9] = system: A. baumannii PBP3 N377Y; assay: as above
# [10] = system: A. baumannii PBP3 N392T; assay: as above
# [11] = system: A. baumannii PBP3 S395F; assay: as above; conditions: variant data from McLeod et al. (2018)
# [12] = system: A. baumannii PBP3 Q488K; assay: as above
compound,measurement,setting,value
C[C@@H](O)[C@H]1C(=O)N2C(C(=O)O)=C(SCCN=CN)C[C@H]12 [imipenem],%NS (% non-susceptibility),"[1]; 64 non-clonal ABC isolates, 2023 CLSI breakpoints plus FDA breakpoint of 4 µg/mL for SUL-DUR",100%
same,MIC50,[1]; Acinetobacter,> 64 µg/mL
same,MIC90,[1]; Acinetobacter,> 64 µg/mL
same,MIC,"[1]; Acinetobacter, read-out: MIC Max",> 64 µg/mL
same,MIC,"[1]; Acinetobacter, read-out: MIC Min",16 µg/mL
same,MIC,"[2]; isolate ARC6644 (IHMA 1420327), Mexico, UTI, 2016, read-out: MIC",16 µg/mL
same,MIC,"[2]; isolate ARC6645 (IHMA 1435703), France, UTI, 2016, read-out: MIC",> 64 µg/mL
same,MIC,"[2]; isolate ARC6646 (IHMA 1484127), United States, RTI, 2016, read-out: MIC",64 µg/mL
same,MIC,"[2]; isolate ARC6647 (IHMA 1386786), Argentina, RTI, 2016, read-out: MIC",> 64 µg/mL
same,MIC,"[2]; isolate ARC6648 (IHMA 1407634), Spain, RTI, 2016, read-out: MIC",> 64 µg/mL
same,MIC,"[2]; isolate ARC6650 (IHMA 1457337), Argentina, RTI, 2016, read-out: MIC",32 µg/mL
same,MIC,"[2]; isolate ARC6652 (IHMA 1465642), Belgium, RTI, 2016, read-out: MIC",64 µg/mL
same,MIC,"[2]; isolate ARC6653 (IHMA 1308777), Vietnam, RTI, 2016, read-out: MIC",64 µg/mL
same,MIC,"[2]; isolate ARC6799 (IHMA 1562935), Spain, UTI, 2017, read-out: MIC",64 µg/mL
same,MIC,"[2]; isolate ARC6800 (IHMA 1557526), Turkey, RTI, 2017, read-out: MIC",64 µg/mL
same,MIC,"[2]; isolate ARC6801 (IHMA 1662094), Thailand, RTI, 2017, read-out: MIC",> 64 µg/mL
same,MIC,"[2]; isolate ARC6802 (IHMA 1557073), Spain, UTI, 2017, read-out: MIC",64 µg/mL
same,MIC,"[2]; isolate ARC6803 (IHMA 1589408), Belgium, UTI, 2017, read-out: MIC",64 µg/mL
same,MIC,"[2]; isolate ARC6805 (IHMA 1558650), United States, RTI, 2017, read-out: MIC",32 µg/mL
same,MIC,"[2]; isolate ARC6808 (IHMA 1557168), Spain, RTI, 2017, read-out: MIC",64 µg/mL
same,MIC,"[2]; isolate ARC6809 (IHMA 1699528), Guatemala, RTI, 2017, read-out: MIC",> 64 µg/mL
same,MIC,"[2]; isolate ARC6810 (IHMA 1699548), Guatemala, RTI, 2017, read-out: MIC",> 64 µg/mL
same,MIC,"[2]; isolate ARC6812 (IHMA 1699530), Guatemala, RTI, 2017, read-out: MIC",64 µg/mL
same,MIC,"[2]; isolate ARC6813 (IHMA 1699543), Guatemala, UTI, 2017, read-out: MIC",> 64 µg/mL
same,MIC,"[2]; isolate ARC6814 (IHMA 1699512), Guatemala, RTI, 2017, read-out: MIC",> 64 µg/mL
same,MIC,"[2]; isolate ARC6815 (IHMA 1699513), Guatemala, RTI, 2017, read-out: MIC",> 64 µg/mL
same,MIC,"[2]; isolate ARC6816 (IHMA 1699521), Guatemala, RTI, 2017, read-out: MIC",> 64 µg/mL
same,MIC,"[2]; isolate ARC6817 (IHMA 1699523), Guatemala, RTI, 2017, read-out: MIC",> 64 µg/mL
same,MIC,"[2]; isolate ARC6818 (IHMA 1683261), Thailand, RTI, 2017, read-out: MIC",> 64 µg/mL
same,MIC,"[2]; isolate ARC6819 (IHMA 1683267), Thailand, RTI, 2017, read-out: MIC",> 64 µg/mL
same,MIC,"[2]; isolate ARC6820 (IHMA 1647876), Argentina, RTI, 2017, read-out: MIC",64 µg/mL
same,MIC,"[2]; isolate ARC6821 (IHMA 1699517), Guatemala, RTI, 2017, read-out: MIC",> 64 µg/mL
same,MIC,"[2]; isolate ARC6822 (IHMA 1637626), Guatemala, RTI, 2017, read-out: MIC",64 µg/mL
same,MIC,"[2]; isolate ARC6823 (IHMA 1620872), Greece, SSSI, 2017, read-out: MIC",64 µg/mL
same,MIC,"[2]; isolate ARC6824 (IHMA 1625487), Argentina, BSI, 2017, read-out: MIC",64 µg/mL
same,MIC,"[2]; isolate ARC6937 (IHMA 1562926), Spain, UTI, 2017, read-out: MIC",64 µg/mL
same,MIC,"[2]; isolate ARC6950 (IHMA 1820064), Israel, RTI, 2018, read-out: MIC",> 64 µg/mL
same,MIC,"[2]; isolate ARC6953 (IHMA 1909827), Turkey, IAI, 2018, read-out: MIC",64 µg/mL
same,MIC,"[2]; isolate ARC6954 (IHMA 1838192), Guatemala, SSSI, 2018, read-out: MIC",> 64 µg/mL
same,MIC,"[2]; isolate ARC6955 (IHMA 1825425), United States, RTI, 2018, read-out: MIC",64 µg/mL
same,MIC,"[2]; isolate ARC7008 (IHMA 2009813), Thailand, BSI, 2019, read-out: MIC",> 64 µg/mL
same,MIC,"[2]; isolate ARC7009 (IHMA 2043611), United States, UTI, 2019, read-out: MIC",> 64 µg/mL
same,MIC,"[2]; isolate ARC7010 (IHMA 2043398), United States, RTI, 2019, read-out: MIC",> 64 µg/mL
same,MIC,"[2]; isolate ARC7011 (IHMA 2104553), Germany, RTI, 2019, read-out: MIC",> 64 µg/mL
same,MIC,"[2]; isolate ARC7012 (IHMA 2010001), Thailand, RTI, 2019, read-out: MIC",> 64 µg/mL
same,MIC,"[2]; isolate ARC7013 (IHMA 1962831), Argentina, RTI, 2019, read-out: MIC",> 64 µg/mL
same,MIC,"[2]; isolate ARC7014 (IHMA 2045328), Guatemala, IAI, 2019, read-out: MIC",64 µg/mL
same,MIC,"[2]; isolate ARC7015 (IHMA 2045327), Guatemala, UTI, 2019, read-out: MIC",64 µg/mL
same,MIC,"[2]; isolate ARC7016 (IHMA 2148441), Brazil, BSI, 2019, read-out: MIC",> 64 µg/mL
same,MIC,"[2]; isolate ARC7017 (IHMA 2148446), Brazil, BSI, 2019, read-out: MIC",> 64 µg/mL
same,MIC,"[2]; isolate ARC7018 (IHMA 2045454), Guatemala, IAI, 2019, read-out: MIC",> 64 µg/mL
same,MIC,"[2]; isolate ARC7019 (IHMA 2114463), Thailand, RTI, 2019, read-out: MIC",> 64 µg/mL
same,MIC,"[2]; isolate ARC7020 (IHMA 2045326), Guatemala, RTI, 2019, read-out: MIC",64 µg/mL
same,MIC,"[2]; isolate ARC7021 (IHMA 1966347), Guatemala, RTI, 2019, read-out: MIC",64 µg/mL
same,MIC,"[2]; isolate ARC7022 (IHMA 2045319), Guatemala, IAI, 2019, read-out: MIC",64 µg/mL
same,MIC,"[2]; isolate ARC7024 (IHMA 2059448), Turkey, RTI, 2019, read-out: MIC",64 µg/mL
same,MIC,"[2]; isolate ARC7025 (IHMA 2002121), Spain, RTI, 2019, read-out: MIC",64 µg/mL
same,MIC,"[2]; isolate ARC7026 (IHMA 2104494), Guatemala, BSI, 2019, read-out: MIC",> 64 µg/mL
same,MIC,"[2]; isolate ARC7082 (IHMA 2160640), Belgium, BSI, 2020, read-out: MIC",> 64 µg/mL
same,MIC,"[2]; isolate ARC7083 (IHMA 2163687), United States, RTI, 2020, read-out: MIC",64 µg/mL
same,MIC,"[2]; isolate ARC7084 (IHMA 2189596), Germany, RTI, 2020, read-out: MIC",> 64 µg/mL
same,MIC,"[2]; isolate ARC7085 (IHMA 2205747), Guatemala, IAI, 2020, read-out: MIC",> 64 µg/mL
same,MIC,"[2]; isolate ARC7086 (IHMA 2207563), Israel, RTI, 2020, read-out: MIC",> 64 µg/mL
same,MIC,"[2]; isolate ARC7088 (IHMA 2215554), Turkey, BSI, 2020, read-out: MIC",> 64 µg/mL
same,MIC,"[2]; isolate ARC7089 (IHMA 2240345), Argentina, BSI, 2020, read-out: MIC",64 µg/mL
same,MIC,"[2]; isolate ARC7090 (IHMA 2244410), Poland, RTI, 2020, read-out: MIC",> 64 µg/mL
same,MIC,"[2]; isolate ARC7091 (IHMA 2244564), Australia, RTI, 2020, read-out: MIC",> 64 µg/mL
same,MIC,"[2]; isolate ARC7092 (IHMA 2258772), United States, BSI, 2020, read-out: MIC",> 64 µg/mL
same,MIC,"[2]; isolate ARC7093 (IHMA 2258783), United States, RTI, 2020, read-out: MIC",> 64 µg/mL
same,MIC,"[2]; isolate ARC7094 (IHMA 2296423), Turkey, RTI, 2020, read-out: MIC",64 µg/mL
same,MIC,"[2]; isolate ARC7095 (IHMA 2320843), Turkey, BSI, 2020, read-out: MIC",64 µg/mL
same,MIC,"[2]; isolate ARC7156 (IHMA 2455450), Greece, RTI, 2021, read-out: MIC",> 64 µg/mL
same,MIC,"[2]; isolate ARC7158 (IHMA 2523738), Italy, BSI, 2021, read-out: MIC",> 64 µg/mL
same,MIC,"[2]; isolate ARC7159 (IHMA 2456229), Malaysia, RTI, 2021, read-out: MIC",> 64 µg/mL
same,MIC,"[2]; isolate ARC7160 (IHMA 2458626), Thailand, RTI, 2021, read-out: MIC",> 64 µg/mL
same,MIC,"[2]; isolate ARC7161 (IHMA 2429252), Ukraine, RTI, 2021, read-out: MIC",> 64 µg/mL
same,MIC,"[2]; isolate ARC7162 (IHMA 2411847), United States, BSI, 2021, read-out: MIC",> 64 µg/mL
same,MIC,"[2]; isolate ARC7163 (IHMA 2477704), United States, BSI, 2021, read-out: MIC",> 64 µg/mL
same,MIC,[3],64 µg/mL
same,MIC,"[4]; isolate ARC6949 (IHMA 1898982), Romania, RTI, 2018, read-out: MIC",> 64 µg/mL
same,MIC,"[4]; isolate ARC6951 (IHMA 1776233), Philippines, RTI, 2018, read-out: MIC",> 64 µg/mL
same,MIC,"[4]; isolate ARC6952 (IHMA 1899008), Romania, RTI, 2018, read-out: MIC",> 64 µg/mL
same,MIC,"[4]; isolate ARC7087 (IHMA 2212062), Colombia, BSI, 2020, read-out: MIC",64 µg/mL
same,k inact/K i,[5],540 ± 40 ([3]) M^-1s^-1
same,k inact/K i,[6],8.8 ± 0.7 ([3]) M^-1s^-1
same,% WT,[7],100%
same,k inact/K i,[7]; average ± SD,450 ± 60 ([10]) M^-1s^-1
same,% WT,[8],106.7%
same,k inact/K i,[8]; average ± SD,480 ± 40 ([2]) M^-1s^-1
same,% WT,[9],62.2%
same,k inact/K i,[9]; average ± SD,280 ± 10 ([2]) M^-1s^-1
same,% WT,[10],175.6%
same,k inact/K i,[10]; average ± SD,790 ± 50 ([2]) M^-1s^-1
same,% WT,[11],2.0%
same,% WT,[12],82.2%
same,k inact/K i,[12]; average ± SD,370 ± 20 ([2]) M^-1s^-1
